Test results from ChEMBL document CHEMBL1201862, “PubChem BioAssay data set” (2004).
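How tested: cells in 96-well plates exposed to compound for 48 hours at five concentrations. At the GI50, growth is halved.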 Activity calls are given as the source filed them. Rule as the data show it: active = GI50 up to about 1.1 µM and inactive = higher.

How the values were obtained:
Experiment in all cases: NCI anticancer screen, dose series, 48 h
[1] = system: M19-MEL
[2] = system: UACC-257
[3] = system: SNB-19
[4] = system: NCI-H23
[5] = system: NCI-H226
[6] = system: SF-268
[7] = system: KM12
[8] = system: SR
[9] = system: NCI-H460
[10] = system: IGROV-1
[11] = system: OVCAR-5
[12] = system: OVCAR-3
[13] = system: HOP-92
[14] = system: SK-MEL-2
[15] = system: CAKI-1
[16] = system: SK-MEL-5
[17] = system: XF498
[18] = system: OVCAR-4
[19] = system: K562
[20] = system: NCI-H522
[21] = system: DLD-1
[22] = system: KM-20L2
[23] = system: ACHN
[24] = system: SF-295
[25] = system: U-251
[26] = system: SN12C
[27] = system: OVCAR-8
[28] = system: Malme-3M
[29] = system: MOLT-4
[30] = system: RPMI-8226
[31] = system: SK-OV-3
[32] = system: A549
[33] = system: DMS-273
[34] = system: COLO 205
[35] = system: HOP-62
[36] = system: TK-10
[37] = system: M14
[38] = system: UACC-62
[39] = system: SNB-75
[40] = system: SNB-78
[41] = system: EKVX
[42] = system: HT-29
[43] = system: 786-0
[44] = system: HCT-116
[45] = system: CCRF-CEM
[46] = system: HCC 2998
[47] = system: LOX IMVI
[48] = system: DMS-114
[49] = system: SW-620
[50] = system: SF-539
[51] = system: HOP-18
[52] = system: SK-MEL-28
[53] = system: UO-31
[54] = system: A498
[55] = system: NCI/ADR-RES
[56] = system: RXF 393
[57] = system: HL-60
[58] = system: HCT-15
[59] = system: MCF7
[60] = system: PC-3
[61] = system: DU-145
[62] = system: MDA-N
[63] = system: Hs-578T
[64] = system: MDA-MB-231
[65] = system: BT-549
[66] = system: T47D
[67] = system: MDA-MB-435

`Cn1cnc([N+](=O)[O-])c1Sc1nccn1-c1ccccc1` was tested, and the GI50 [1] was 51.8 µM (inactive), the GI50 [2] was 37.6 µM (inactive) and the GI50 [3] was > 100 µM (inactive). The GI50 [4] was 29.9 µM (inactive), the GI50 [5] was 33.7 µM (inactive) and the GI50 [6] was 66.5 µM (inactive). The GI50 [7] was > 100 µM (inactive), the GI50 [8] was 21.2 µM (inactive) and the GI50 [9] was 41.4 µM (inactive). The GI50 [10] was 43.1 µM (inactive), the GI50 [11] was > 100 µM (inactive) and the GI50 [12] was 50.5 µM (inactive). The GI50 [13] was 22.5 µM (inactive), the GI50 [14] was 21.4 µM (inactive) and the GI50 [15] was 97.9 µM (inactive). For the same molecule, the GI50 [16] was 69.2 µM (inactive), the GI50 [17] was 31.1 µM (inactive) and the GI50 [18] was 44.6 µM (inactive). The GI50 [19] was 52.4 µM (inactive), the GI50 [20] was 11.6 µM (inactive) and the GI50 [21] was 33.3 µM (inactive). The GI50 [22] was > 100 µM (inactive), the GI50 [23] was 47.6 µM (inactive) and the GI50 [24] was > 100 µM (inactive). For the same molecule, the GI50 [25] was 49.8 µM (inactive), the GI50 [26] was 42.3 µM (inactive) and the GI50 [27] was 43.1 µM (inactive). The GI50 [28] was 17.5 µM (inactive), the GI50 [29] was 21.5 µM (inactive) and the GI50 [30] was 51.3 µM (inactive). For the same molecule, the GI50 [31] was > 100 µM (inactive), the GI50 [32] was > 100 µM (inactive) and the GI50 [33] was 63.5 µM (inactive). For the same molecule, the GI50 [34] was 33.9 µM (inactive), the GI50 [35] was > 100 µM (inactive) and the GI50 [36] was > 100 µM (inactive). For the same molecule, the GI50 [37] was 44.9 µM (inactive), the GI50 [38] was 35.2 µM (inactive) and the GI50 [39] was 71.9 µM (inactive). For the same molecule, the GI50 [40] was 26.3 µM (inactive), the GI50 [41] was 44.7 µM (inactive) and the GI50 [42] was 61.1 µM (inactive). The GI50 [43] was > 100 µM (inactive), the GI50 [44] was 38 µM (inactive) and the GI50 [45] was 36.3 µM (inactive). For the same molecule, the GI50 [46] was > 100 µM (inactive), the GI50 [47] was 16.8 µM (inactive) and the GI50 [48] was 29.4 µM (inactive). For the same molecule, the GI50 [49] was 42.9 µM (inactive), the GI50 [50] was 68.2 µM (inactive) and the GI50 [51] was 8.85 µM (inactive). The GI50 [52] was 37.8 µM (inactive), the GI50 [53] was 22.3 µM (inactive) and the GI50 [54] was > 100 µM (inactive).

In the case of `O=C1C(Br)=CC2([N+](=O)[O-])CCNC3=C(C4=NCCc5c[nH]c(c54)C3=O)C2=C1Br` (stereo not drawn), the GI50 [55] is reported as 0.128 µM (active), the GI50 [2] is reported as 0.279 µM (active) and the GI50 [56] is reported as 2.39 µM (inactive). For the same molecule, the GI50 [3] was 2.81 µM (inactive), the GI50 [4] was 1.39 µM (inactive) and the GI50 [5] was 2.38 µM (inactive). For the same molecule, the GI50 [6] was 2.26 µM (inactive), the GI50 [7] was 3.96 µM (inactive) and the GI50 [9] was 3.39 µM (inactive). For the same molecule, the GI50 [10] was 1.99 µM (inactive), the GI50 [11] was 1.1 µM (active) and the GI50 [12] was 0.0546 µM (active). For the same molecule, the GI50 [13] was 0.811 µM (active), the GI50 [14] was 1.65 µM (inactive) and the GI50 [15] was 1.49 µM (inactive). For the same molecule, the GI50 [16] was 0.589 µM (active), the GI50 [17] was 2.24 µM (inactive) and the GI50 [18] was 1.76 µM (inactive). The GI50 [19] was 0.424 µM (active), the GI50 [20] was 0.1 µM (active) and the GI50 [21] was 0.364 µM (active). For the same molecule, the GI50 [22] was 0.414 µM (active), the GI50 [24] was 1.91 µM (inactive) and the GI50 [25] was 1.51 µM (inactive). For the same molecule, the GI50 [57] was 0.206 µM (active), the GI50 [26] was 1.78 µM (inactive) and the GI50 [27] was 0.365 µM (active). For the same molecule, the GI50 [29] was 1.14 µM (inactive), the GI50 [30] was 0.159 µM (active) and the GI50 [31] was 3.13 µM (inactive). For the same molecule, the GI50 [32] was 3 µM (inactive), the GI50 [33] was 1.72 µM (inactive) and the GI50 [58] was 0.796 µM. The GI50 [34] was 0.0178 µM (active), the GI50 [35] was 3.58 µM (inactive) and the GI50 [38] was 1.72 µM (inactive). For the same molecule, the GI50 [39] was 8.39 µM (inactive), the GI50 [40] was 2.09 µM (inactive) and the GI50 [59] was 0.0562 µM (active). For the same molecule, the GI50 [41] was 2.33 µM (inactive), the GI50 [42] was 0.553 µM (active) and the GI50 [44] was 0.317 µM (active). For the same molecule, the GI50 [45] was 0.304 µM (active), the GI50 [46] was 2.62 µM (inactive) and the GI50 [47] was 1.56 µM (inactive). For the same molecule, the GI50 [48] was 0.163 µM (active), the GI50 [49] was 0.0497 µM (active) and the GI50 [50] was 2.11 µM (inactive). For the same molecule, the GI50 [51] was 14.4 µM (inactive), the GI50 [52] was 3.26 µM (inactive) and the GI50 [53] was 9.59 µM (inactive). The GI50 [54] was 5.06 µM (inactive).

In the case of `O=C1NC(=O)C2C3C=CC(C12)C1C2C(=O)NC(=O)C2C31` (stereo not drawn), the GI50 [60] is reported as 217 µM (inactive), the GI50 [61] is reported as > 250 µM (inactive) and the GI50 [55] is reported as > 250 µM (inactive). The GI50 [1] was 177 µM (inactive), the GI50 [2] was 238 µM (inactive) and the GI50 [56] was 220 µM (inactive). The GI50 [3] was 149 µM (inactive), the GI50 [4] was 245 µM (inactive) and the GI50 [5] was 177 µM (inactive). The GI50 [6] was > 250 µM (inactive), the GI50 [7] was 220 µM (inactive) and the GI50 [8] was 135 µM (inactive). The GI50 [9] was 53.7 µM (inactive), the GI50 [10] was 186 µM (inactive) and the GI50 [11] was > 250 µM (inactive). The GI50 [12] was 242 µM (inactive), the GI50 [13] was 128 µM (inactive) and the GI50 [62] was 701 µM (inactive). The GI50 [14] was 173 µM (inactive), the GI50 [15] was 203 µM (inactive) and the GI50 [63] was 100 µM (inactive). The GI50 [16] was 195 µM (inactive), the GI50 [17] was 143 µM (inactive) and the GI50 [64] was > 250 µM (inactive). The GI50 [18] was 223 µM (inactive), the GI50 [19] was 234 µM (inactive) and the GI50 [20] was 151 µM (inactive). For the same molecule, the GI50 [21] was 228 µM (inactive), the GI50 [22] was 208 µM (inactive) and the GI50 [23] was > 250 µM (inactive). The GI50 [24] was 174 µM (inactive), the GI50 [25] was 203 µM (inactive) and the GI50 [57] was 183 µM (inactive). The GI50 [26] was 192 µM (inactive), the GI50 [27] was 203 µM (inactive) and the GI50 [28] was 187 µM (inactive). The GI50 [29] was > 100 µM (inactive), the GI50 [30] was 185 µM (inactive) and the GI50 [31] was 98.6 µM (inactive). The GI50 [32] was 93.8 µM (inactive), the GI50 [33] was 116 µM (inactive) and the GI50 [58] was 237 µM. The GI50 [34] was 82.4 µM (inactive), the GI50 [35] was 74.3 µM (inactive) and the GI50 [65] was > 250 µM (inactive). For the same molecule, the GI50 [36] was > 250 µM (inactive), the GI50 [37] was 240 µM (inactive) and the GI50 [38] was 107 µM (inactive). For the same molecule, the GI50 [39] was 197 µM (inactive), the GI50 [40] was 204 µM (inactive) and the GI50 [59] was 164 µM (inactive). For the same molecule, the GI50 [41] was 234 µM (inactive), the GI50 [42] was 177 µM (inactive) and the GI50 [43] was 682 µM (inactive). For the same molecule, the GI50 [44] was 211 µM (inactive), the GI50 [45] was 54.8 µM (inactive) and the GI50 [46] was 221 µM (inactive). For the same molecule, the GI50 [47] was 241 µM (inactive), the GI50 [66] was > 250 µM (inactive) and the GI50 [67] was > 1000 µM (inactive). For the same molecule, the GI50 [48] was 125 µM (inactive), the GI50 [49] was 167 µM (inactive) and the GI50 [50] was 191 µM (inactive). For the same molecule, the GI50 [51] was 222 µM (inactive), the GI50 [52] was 222 µM (inactive) and the GI50 [53] was 211 µM (inactive). The GI50 [54] was 158 µM (inactive).
